Our source for the GI50 and TGI values is PubChem BioAssay (NCI).

Values joined by “and” are separate entries in the source; they are usually repeats but may differ in a detail not shown here. Equal values may be shown once.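 The compound was tested at five concentrations on cells cultured in 96-well plates, with a 48-hour exposure period. GI50 marks 50% less growth. TGI: concentration producing complete growth inhibition.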 Some results are limits rather than exact numbers.

Some test systems named below: A498 renal; HCC-2998 colon; HT29 colon; K-562 leukemia; NCI/ADR-RES ovarian; OVCAR-5 ovarian; PC-3 prostate; SW-620 colon; U251 CNS; UACC-257 melanoma.
Common to all, as to experiment: inhibition of tumour cell growth, NCI panel, 48 h

Consider `Cc1cccc2c1NC(=O)[C@@H](NC(=O)[C@H](CCC(F)(F)F)[C@H](CCC(F)(F)F)C(N)=O)N=C2c1cccc(F)c1`, for which the GI50 in the assay on A498 renal was 36.6 µM; in the assay with HCC-2998 colon it was 60 µM; in the assay with HT29 colon it was above 100 µM; with K-562 leukemia, above 100 µM; in the assay on NCI/ADR-RES ovarian, 26.3 µM; with OVCAR-5 ovarian it was 86.4 µM. For the same molecule, the GI50 in the assay with PC-3 prostate is 39.5 µM; with SW-620 colon, above 100 µM; in the assay with U251 CNS it was 20.2 µM; in the assay on UACC-257 melanoma, 48.6 µM. For the same molecule, the TGI in the assay on A498 renal, in the assay with HCC-2998 colon, in the assay with HT29 colon, in the assay with K-562 leukemia, in the assay with NCI/ADR-RES ovarian and in the assay with OVCAR-5 ovarian was above 100 µM each time. Further, the TGI with PC-3 prostate was above 100 µM; in the assay with SW-620 colon, above 100 µM; in the assay on U251 CNS, 59.2 µM; with UACC-257 melanoma, above 100 µM.

Turning to `OC1CCC(COC(c2ccccc2)(c2ccccc2)c2ccccc2)O1` (configuration not stated), the TGI in the assay with A498 renal amounted to 35.8 µM; in the assay with HCC-2998 colon, 35.6 µM; in the assay with HT29 colon, 33.7 µM; in the assay with K-562 leukemia, 41.1 µM; in the assay with NCI/ADR-RES ovarian it was 48.3 µM; with OVCAR-5 ovarian it was 45.2 µM. In addition, the TGI in the assay with PC-3 prostate is 24.3 µM; in the assay on SW-620 colon it was 37.2 µM; with U251 CNS, 36 µM; in the assay with UACC-257 melanoma, 34.1 µM.

Consider `COc1cc2c3c(n(CCCNC(C)(C)CO)c(=O)c2cc1OC)-c1cc2c(cc1C3=O)OCO2`, for which the GI50 is 17.1 µM in the assay on A498 renal; 1.39 µM with HCC-2998 colon; 1.08 µM in the assay on HT29 colon; 2.82 µM with K-562 leukemia; 3.28 µM with NCI/ADR-RES ovarian; 16.3 µM with OVCAR-5 ovarian. For the same molecule, the GI50 in the assay with PC-3 prostate is 2.75 µM; in the assay on SW-620 colon, 0.25 µM; in the assay on U251 CNS, 0.233 µM; in the assay on UACC-257 melanoma it was 19.1 µM. Further, the TGI is 40.1 µM in the assay with A498 renal; 7.87 µM with HCC-2998 colon; above 100 µM with HT29 colon; above 55.7 µM in the assay with K-562 leukemia; 28.3 µM with NCI/ADR-RES ovarian; 36.8 µM with OVCAR-5 ovarian. In addition, the TGI with PC-3 prostate turned out to be 16.3 µM; in the assay with SW-620 colon, 19 µM; with U251 CNS, 28.4 µM; with UACC-257 melanoma, 49.9 µM.

With `COC(=O)CC12CC(NC(=O)c3csc([C@@H](C[C@H](C(C)C)N(C)C(=O)[C@@H](NC(=O)[C@H]4CCCCN4C)C(C)C)OC(C)=O)n3)(C1)C2`, the GI50 was 0.00384 µM and 0.00545 µM in the assay on A498 renal; 0.0303 µM and 0.0148 µM in the assay with HCC-2998 colon; 0.00364 µM and 0.0055 µM in the assay with HT29 colon; 0.00194 µM and 0.00333 µM in the assay with K-562 leukemia; 0.0659 µM and 0.122 µM with NCI/ADR-RES ovarian; 0.0049 µM and 0.0165 µM in the assay on OVCAR-5 ovarian. Besides, the GI50 with PC-3 prostate is 0.00396 µM and 0.0101 µM; with SW-620 colon, 0.0035 µM and 0.0102 µM; in the assay with U251 CNS it was 0.0036 µM and 0.013 µM; with UACC-257 melanoma, 23.7 µM. Also, the TGI with A498 renal is 0.0224 µM; with HCC-2998 colon it was above 33.3 µM; in the assay with HT29 colon it was above 33.3 µM; in the assay with K-562 leukemia, above 33.3 µM; in the assay with OVCAR-5 ovarian it was above 33.3 µM; in the assay on PC-3 prostate, above 33.3 µM. Moreover, the TGI in the assay with SW-620 colon, with U251 CNS and in the assay with UACC-257 melanoma was above 33.3 µM throughout.

In the case of `COC(=O)Nc1nc2ccc(C(=O)C3CC3)cc2[nH]1`, the GI50 is 0.421 µM with A498 renal; 0.771 µM with HCC-2998 colon; 0.295 µM in the assay on HT29 colon; 0.417 µM with K-562 leukemia; 0.329 µM in the assay on NCI/ADR-RES ovarian; 3.25 µM in the assay with OVCAR-5 ovarian. For the same molecule, the GI50 was 0.346 µM with PC-3 prostate, 0.297 µM with SW-620 colon, 0.426 µM with U251 CNS and 0.417 µM with UACC-257 melanoma. The TGI in the assay with HT29 colon is 6.31 µM; with K-562 leukemia, above 100 µM; in the assay with NCI/ADR-RES ovarian it was 9.82 µM; with OVCAR-5 ovarian, above 56.1 µM; in the assay with PC-3 prostate it was above 100 µM; in the assay on SW-620 colon, above 100 µM. For the same molecule, the TGI in the assay with U251 CNS and in the assay with UACC-257 melanoma was above 100 µM in each case.

Regarding `O=C(NCCNc1nccc(-c2c(-c3ccc(F)cc3)nc3sccn23)n1)Nc1cccc(C(F)(F)F)c1`, the GI50 with A498 renal is 10.7 µM; in the assay on HCC-2998 colon it was 5.21 µM; with HT29 colon, 6.44 µM; in the assay on K-562 leukemia it was 6.14 µM; in the assay with NCI/ADR-RES ovarian, 4.38 µM; with OVCAR-5 ovarian, 18.5 µM. For the same molecule, the GI50 is 3.93 µM with PC-3 prostate, 13.6 µM with SW-620 colon, 7.62 µM with U251 CNS and 10.6 µM in the assay on UACC-257 melanoma. In addition, the TGI is 23.8 µM in the assay on A498 renal; 17.7 µM in the assay on HCC-2998 colon; 28 µM in the assay on HT29 colon; above 100 µM with K-562 leukemia; 64.2 µM with NCI/ADR-RES ovarian; 54.4 µM in the assay with OVCAR-5 ovarian. Besides, the TGI in the assay with PC-3 prostate turned out to be 42.3 µM; in the assay on SW-620 colon it was 32 µM; in the assay with U251 CNS, 31.7 µM; in the assay on UACC-257 melanoma, 26.1 µM.
